In patent US20240245711A1, “A 19-NOR C3,3-DISUBSTITUTED C21-N-PYRAZOLYL STEROID FOR THE TREATMENT OF MAJOR DEPRESSIVE DISORDER” (Sage Therapeutics, Inc., priority 2021, published 2024):
Where “and” joins values, the source holds several entries; their conditions need not be identical. Identical values can stand only once.

Test system: adult subjects with Major Depressive Disorder
Test: Phase 3 open-label 1-year study: need for re-treatment (number of and time to re-treatments)
Assay type: in vivo, human
Conditions: for Subjects with No re-treatment (Cycle 1), n (%) / Subjects with Only 1 re-treatment (Cycle 2), n (%) / Subjects with Only 2 re-treatment (Cycle 3), n (%) / Subjects with Only 3 re-treatment (Cycle 4), n (%) / Subjects with Only 4 re-treatment (Cycle 5), n (%): FAS; for Time to re-treatment, Mean (SD): Low Dose Cohort (FAS)
Description: Secondary Objective: To assess the need for re-treatment with Compound (1) following initial treatment in adults with MDD currently experiencing an MDE over a 1-year period, and to assess the response of initial treatment and re-treatment(s) with Compound (1) following an initial 2-week treatment period in adults with MDD currently experiencing an MDE over a 1-year period.
Secondary Endpoints: The need for re-treatment with Compound (1) as assessed by: time to first re-treatment (Kaplan-Meier curves), number of subjects achieving the requirements for re-treatment, number of re-treatment cycles for each subject, the response of initial treatment and/or re-treatment as assessed by: change from baseline in the 17-item Hamilton Rating Scale for Depression (HAM-D) total score at the end of each 14-day treatment (initial and/or re-treatment) period, HAM-D response at the end of each 14-day treatment (initial and/or re-treatment) period, defined as a ≥50% reduction in HAM-D score from baseline, HAM-D remission at the end of each 14-day treatment (initial and/or re-treatment) period, defined as HAM-D total score≤7, Clinical Global Impression-Improvement (CGI-I) response, defined as “much improved” or “very much improved”, at the end of each 14-day treatment (initial and/or re-treatment) period, change from baseline in Clinical Global Impression-Severity (CGI-S) score at the end of each 14-day treatment (initial and/or re-treatment) period.
Subjects who continued in the Observation Period were monitored remotely via PHQ-9 assessment every two weeks. If PHQ-9 score was >=10 at any assessment, PHQ-9 assessment was switch to every week until the score came down below 10 or the subject was dosed with Compound (1) in a subsequent cycle, whichever was earlier. A subject was to come back to the site for HAM-D assessment within a week of PHQ-9 score >=10; if the HAM-D total score >=20 and at least 56 days had elapsed since the last dose of Compound (1), another dosing cycle of Compound (1) were to start. If any of these criteria were not met, the subject couldn't be treated with Compound (1) at that time. Without the trigger of PHQ-9>=10 the subject was to have a clinic visit every 8 weeks. A subject could have at most 5 cycles of treatment within a year. FIG. 2 is a depiction of the eligibility criteria of the study.
The cohorts pertaining to the different doses that the subjects received were defined as following: • 50 mg cohort: This cohort includes subjects who have initiated treatment with 50 mg and received re-treatment with 50 mg only. • 30 mg cohort: This cohort includes subjects who have initiated treatment with 30 mg regardless of the dose they have received in re-treatments. • Low dose cohort: This cohort includes subjects who have initiated treatment with 30 mg and received re-treatment with 30 mg only. • Dose switch cohort: This cohort includes subjects who have received initial treatment with 30 mg and at least one subsequent re-treatment with 50 mg. • Study Period X: starts on the date of the first dose of Compound (1) in cycle X and goes up to one day prior to the first dose of the next cycle. In some embodiments, X is any number from 1 to 5. • Treatment Period X: starts on the date of the first dose of Compound (1) in cycle X and goes up to one day after the last dose in cycle X. In some embodiments, X is any number from 1 to 5. • Treatment Cycle X: starts on the date of the first dose of Compound (1) in cycle X and goes up to 14 days after the last dose in cycle X. The treatment cycles may be denoted as C1-C5. • Observation period X: starts the day after Treatment Cycle X ends and goes up to one day prior to the start of next treatment cycle. In some embodiments, X is any number from 1 to 5.
Analysis Sets: The safety set was defined as all subjects who were administered study drug. The period-specific safety set includes subjects in the safety set who were administered study drug in the corresponding treatment cycle. […]

[1] = ATD Use at Baseline = No, 30 mg Cohort (N = 280)
[2] = ATD Use at Baseline = No, 50 mg Cohort (N = 86)
[3] = ATD Use at Baseline = Yes, 30 mg Cohort (N = 209)
[4] = ATD Use at Baseline = Yes, 50 mg Cohort (N = 60)

C[C@@]1(O)CC[C@H]2[C@H](CC[C@@H]3[C@@H]2CC[C@]2(C)[C@@H](C(=O)Cn4cc(C#N)cn4)CC[C@@H]32)C1 [Compound (1), 1-(2-((3R,5R,8R,9R,10S,13S,14S,17S)-3-hydroxy-3,13-dimethylhexadecahydro-1H-cyclopenta[a]phenanthren-17-yl)-2-oxoethyl)-1H-pyrazole-4-carbonitrile]
Time to re-treatment since last dose in previous cycle, Median (Cycle 5, Dose Switch (FAS)): 58 days | Time to re-treatment since last dose in previous cycle, Min - Max (Cycle 5, Dose Switch (FAS)): 57 to 79 days | n/N: FAS subjects eligible and dosed in Cycle X / eligible for dosing in Cycle X (Cycle 5, Low Dose): 20/34 | Time to re-treatment since last dose in previous cycle, Mean (SD) (Cycle 5, Low Dose (FAS)): 63.2 (7.42) Days | Time to re-treatment since last dose in previous cycle, Median (Cycle 5, Low Dose (FAS)): 60.5 days | Time to re-treatment since last dose in previous cycle, Min - Max (Cycle 5, Low Dose (FAS)): 58 to 86 days | Dosed in at least 1 re-treatment cycle, % of eligible (Dose Switch (80 eligible)): 80 (100%) | Qualified to be retreated in at least 1 more cycle (HAM-D total score >= 20), % of eligible (Dose Switch (80 eligible)): 80 (100%) | Subjects with No re-treatment (Cycle 1), n (%) of FAS (Dose Switch (N = 80)): 0% | Subjects with Only 1 re-treatment (Cycle 2), n (%) of FAS (Dose Switch (N = 80)): 9 (11.3%) | Subjects with Only 2 re-treatment (Cycle 3), n (%) of FAS (Dose Switch (N = 80)): 18 (22.5%) | Subjects with Only 3 re-treatment (Cycle 4), n (%) of FAS (Dose Switch (N = 80)): 30 (37.5%) | Subjects with Only 4 re-treatment (Cycle 5), n (%) of FAS (Dose Switch (N = 80)): 23 (28.8%) | Average (range) number of re-treatments per subject over 1-year follow-up (Dose Switch Cohort): 2.8 (1-4) | FAS Subjects Dosed in C2, n (%) of FAS (Dose Switch Cohort): 80 (100%) | FAS Subjects dosed in C3, n (%) of FAS (Dose Switch Cohort): 71 (88.8%) | FAS Subjects dosed in C4, n (%) of FAS (Dose Switch Cohort): 53 (66.3%) | FAS Subjects dosed in C5, n (%) of FAS (Dose Switch Cohort): 23 (28.8%) | Subjects with No re-treatment (Cycle 1), n (%) [1]: 114 (40.7%) | Subjects with Only 1 re-treatment (Cycle 2), n (%) [1]: 80 (28.6%) | Subjects with Only 2 re-treatment (Cycle 3), n (%) [1]: 31 (11.1%) | Subjects with Only 3 re-treatment (Cycle 4), n (%) [1]: 33 (11.8%) | Subjects with Only 4 re-treatment (Cycle 5), n (%) [1]: 22 (7.9%) | Subjects with No re-treatment (Cycle 1), n (%) [2]: 72 (83.7%) | Subjects with Only 1 re-treatment (Cycle 2), n (%) [2]: 13 (15.1%) | Subjects with Only 2 re-treatment (Cycle 3), n (%) [2]: 1 (1.2%) | Subjects with Only 3 re-treatment (Cycle 4), n (%) [2]: 0% | Subjects with Only 4 re-treatment (Cycle 5), n (%) [2]: 0% | Subjects with No re-treatment (Cycle 1), n (%) [3]: 96 (45.9%) | Subjects with Only 1 re-treatment (Cycle 2), n (%) [3]: 45 (21.5%) | Subjects with Only 2 re-treatment (Cycle 3), n (%) [3]: 27 (12.9%) | Subjects with Only 3 re-treatment (Cycle 4), n (%) [3]: 20 (9.6%) | Subjects with Only 4 re-treatment (Cycle 5), n (%) [3]: 21 (10.0%) | Subjects with No re-treatment (Cycle 1), n (%) [4]: 48 (80.0%) | Subjects with Only 1 re-treatment (Cycle 2), n (%) [4]: 12 (20.0%) | Subjects with Only 2 re-treatment (Cycle 3), n (%) [4]: 0% | Dosed in at least 1 re-treatment cycle, % of eligible (Low Dose (199 of 392 eligible)): 199 0.8%) and 199 (0.8%) | Qualified to be retreated in at least 1 more cycle (HAM-D total score >= 20), % of eligible (Low Dose (392 eligible)): 225 (57.4%) | Subjects with No re-treatment (Cycle 1), n (%) of FAS (Low Dose (N = 409)): 210 (51.3%) | Subjects with Only 1 re-treatment (Cycle 2), n (%) of FAS (Low Dose (N = 409)): 116 (28.4%) | Subjects with Only 2 re-treatment (Cycle 3), n (%) of FAS (Low Dose (N = 409)): 40 (9.8%) and 40 (9.7%) | Subjects with Only 3 re-treatment (Cycle 4), n (%) of FAS (Low Dose (N = 409)): 23 (5.6%) | Subjects with Only 4 re-treatment (Cycle 5), n (%) of FAS (Low Dose (N = 409)): 20 (4.9%) | Average (range) number of re-treatments per subject over 1-year follow-up (Low Dose Cohort): 0.8 (0-4) and 0.8 | Average total number of treatments per subject (Low Dose Cohort): 1.8 | Effect of antidepressant use on length of time between re-treatments (Low Dose Cohort): did not make much difference | FAS Subjects Dosed in C2, n (%) of FAS (Low Dose Cohort): 199 (48.7%) | FAS Subjects dosed in C3, n (%) of FAS (Low Dose Cohort): 83 (20.3%) | FAS Subjects dosed in C4, n (%) of FAS (Low Dose Cohort): 43 (10.5%) | FAS Subjects dosed in C5, n (%) of FAS (Low Dose Cohort): 20 (4.9%) | Time to re-treatment, Mean (SD) (dosed in Cycle 2, ATD use at baseline of previous cycle No): 97.2 (49.59) Days and 97.2 Days | Time to re-treatment, Mean (SD) (dosed in Cycle 2, ATD use at baseline of previous cycle Yes): 103.3 (56.26) Days and 103.3 Days | Time to re-treatment, Mean (SD) (dosed in Cycle 3, ATD use at baseline of previous cycle No): 88.4 (37.52) Days and 88.4 Days | Time to re-treatment, Mean (SD) (dosed in Cycle 3, ATD use at baseline of previous cycle Yes): 85.9 (32.14) Days and 85.9 Days | Time to re-treatment, Mean (SD) (dosed in Cycle 4, ATD use at baseline of previous cycle No): 73.0 (18.40) Days and 73.0 Days | Time to re-treatment, Mean (SD) (dosed in Cycle 4, ATD use at baseline of previous cycle Yes): 71.1 (17.21) Days and 71.1 Days | Time to re-treatment, Mean (SD) (dosed in Cycle 5, ATD use at baseline of previous cycle No): 61.9 (3.28) Days and 61.9 Days | Time to re-treatment, Mean (SD) (dosed in Cycle 5, ATD use at baseline of previous cycle Yes): 64.5 (10.09) Days and 64.5 Days | Re-treatment rates with and without pre-existing antidepressant therapy (in vivo): similar | Mean (range) number of total treatment courses (overall study population): 1.8 (1-5) | Patients not requiring additional treatment courses during their time in the study (overall study population): 43.7%
